The values that follow come from article PMC4873255 (Bioorganic & medicinal chemistry letters, 2015).

In assay [1] the target is μ opioid receptors (Cavia porcellus, UniProt P97266). Put plainly: cell-based. Details: species or system guinea pig.
The target of assay [2] is human δ opioid receptors (hDOR) (Homo sapiens, UniProt P41143). Nature of the assay: biochemical. Format: binding.
For assay [3], the target named is rat μ-opioid receptors (rMOR) (Rattus norvegicus, UniProt P33535). Put plainly: biochemical. It counts as binding.
Sequence of rat μ-opioid receptors (rMOR) (P33535 whole entry): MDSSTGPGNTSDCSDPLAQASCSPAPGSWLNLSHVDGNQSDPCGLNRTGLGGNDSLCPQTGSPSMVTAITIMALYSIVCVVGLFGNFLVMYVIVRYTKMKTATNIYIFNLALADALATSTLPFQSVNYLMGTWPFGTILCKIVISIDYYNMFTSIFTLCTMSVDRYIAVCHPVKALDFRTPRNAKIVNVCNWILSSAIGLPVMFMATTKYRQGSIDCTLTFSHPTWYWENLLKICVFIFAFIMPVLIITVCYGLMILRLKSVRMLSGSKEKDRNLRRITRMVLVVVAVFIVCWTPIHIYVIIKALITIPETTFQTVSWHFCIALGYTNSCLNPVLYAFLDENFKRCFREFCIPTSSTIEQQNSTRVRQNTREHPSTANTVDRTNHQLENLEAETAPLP
In assay [4] the target is δ opioid receptors (Mus musculus, UniProt P32300). Put plainly: cell-based.
Sequence of δ opioid receptors (P32300 whole entry): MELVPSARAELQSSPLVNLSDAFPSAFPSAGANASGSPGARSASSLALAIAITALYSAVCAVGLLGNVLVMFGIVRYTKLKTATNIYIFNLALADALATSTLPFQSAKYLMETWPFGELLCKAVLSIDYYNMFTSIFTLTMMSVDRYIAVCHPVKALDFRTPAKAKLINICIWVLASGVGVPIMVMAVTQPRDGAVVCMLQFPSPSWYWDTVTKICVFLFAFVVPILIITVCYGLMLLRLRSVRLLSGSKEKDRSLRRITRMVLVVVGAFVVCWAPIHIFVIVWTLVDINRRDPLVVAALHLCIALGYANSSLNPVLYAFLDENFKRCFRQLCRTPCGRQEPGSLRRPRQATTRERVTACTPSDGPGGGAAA

The structures appear in SMILES notation.

Sequence of human δ opioid receptors (hDOR) (P41143 whole entry): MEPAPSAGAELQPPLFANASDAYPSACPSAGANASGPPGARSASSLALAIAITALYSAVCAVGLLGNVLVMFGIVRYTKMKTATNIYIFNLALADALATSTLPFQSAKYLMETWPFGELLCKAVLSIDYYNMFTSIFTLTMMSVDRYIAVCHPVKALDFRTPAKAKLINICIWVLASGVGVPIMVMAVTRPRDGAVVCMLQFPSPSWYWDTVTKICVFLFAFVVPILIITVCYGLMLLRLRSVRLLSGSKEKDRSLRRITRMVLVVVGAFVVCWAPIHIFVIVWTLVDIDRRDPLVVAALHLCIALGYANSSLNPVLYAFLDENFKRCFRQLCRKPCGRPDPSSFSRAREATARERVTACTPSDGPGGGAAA
Sequence of μ opioid receptors (P97266 whole entry, looked up): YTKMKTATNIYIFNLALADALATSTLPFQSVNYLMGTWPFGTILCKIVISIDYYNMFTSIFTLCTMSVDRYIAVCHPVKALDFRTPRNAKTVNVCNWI

By IC50 is commonly meant the midpoint of a concentration-inhibition curve. What is called Ki is a dissociation constant, usually derived from enzyme kinetics or from competition with a known ligand. The low end stands for a stronger hold on the target, the high end for a looser hold on the target. As to `CCC(=O)N(CC1CCCCN1Cc1ccc2c(c1)CCC[C@H]2N(C(=O)CCNC(=O)[C@H](Cc1ccccc1)NC(=O)CNC(=O)[C@@H](C)NC(=O)[C@@H](N)Cc1c(C)cc(O)cc1C)C(=O)CCNC(=O)[C@H](Cc1ccccc1)NC(=O)CNC(=O)[C@@H](C)NC(=O)[C@@H](N)Cc1c(C)cc(O)cc1C)c1ccc(F)c(F)c1` (stereo partly drawn) [Compound 10], the half-inhibitory concentration (IC50) is 2.1 ± 0.45 nM in assay [1], 1.41 nM in assay [2], 1.29 nM in assay [3] and 6.1 ± 1.5 nM in assay [4]. Also, the Ki in assay [2] and in assay [3] was 0.6 nM in each case.
